In patent US20070128217A1 (priority 2003, published 2007):

Key:
[1] = tested on: control sera (pooled serum of ten healthy LUMC hospital workers; commercial negative donor pooled serum from the Dutch bloodbank); format: binding, human; parameters: Binding of Control serum LUMC to linear peptides / Binding of Control serum Blood-bank to linear peptides / Binding of Control serum LUMC to looped peptides / Binding of Control Serum Blood-Bank to Looped peptides / Binding of Control serum LUMC to linear peptides of the protein M of SARS-CoV Urbani / Binding of Control serum Blood-bank to linear peptides of the protein M of SARS-CoV Urbani / Binding of Control serum LUMC to looped peptides of the protein M of SARS-CoV Urbani / Binding of Control Serum Blood-Bank to Looped peptides of the protein M of SARS-CoV Urbani: unit not given here
[2] = tested on: antibodies in sera from SARS patients (sera 1a, 1b, 2, 6, 37, 62, London, SARS-yellow, SARS-green); format: binding, human; parameters: Binding of serum 6 to linear peptides of protein X1 of SARS-CoV Urbani / Binding of serum 37 to linear peptides of protein X1 of SARS-CoV Urbani / Binding of serum 6 to looped/cyclic peptide (PEPSCAN-ELISA) / Binding of serum 37 to looped/cyclic peptide (PEPSCAN-ELISA) / Binding of serum 37 to looped/cyclic peptides of protein X1 of SARS-CoV Urbani / Binding of serum 6 to linear peptides of protein X2 / Binding of serum 37 to linear peptides of protein X2 / Binding of serum 37 to looped/cyclic peptides of protein X2 of SARS-CoV Urbani / Binding of serum 6 to linear peptides of protein M of SARS-CoV Urbani / Binding of serum 37 to linear peptides of protein M of SARS-CoV Urbani / Binding of serum 6 to looped/cyclic peptides of protein M of SARS-CoV Urbani / Binding of serum 37 to looped/cyclic peptides of protein M of SARS-CoV Urbani / Binding of serum 6 to linear peptides of protein X3 of SARS-CoV Urbani / Binding of serum 37 to linear peptides of protein X3 of SARS-CoV Urbani / Binding of serum 37 to looped/cyclic peptides of protein X3 of SARS-CoV Urbani / Binding of serum 6 to linear peptides of protein X4 of SARS-CoV Urbani / Binding of serum 37 to linear peptides of protein X4 of SARS-CoV Urbani / Binding of serum 37 to looped/cyclic peptides of protein X4 of SARS-CoV Urbani / Binding of serum 6 to linear peptides of protein X5 of SARS-CoV Urbani / Binding of serum 37 to linear peptides of protein X5 of SARS-CoV Urbani / Binding of serum 37 to looped/cyclic peptides of protein X5 of SARS-CoV Urbani / Binding of serum 6 to linear peptides of protein N of SARS-CoV Urbani / Binding of serum 37 to linear peptides of protein N of SARS-CoV Urbani / Binding of serum 6 to linear peptide (PEPSCAN-ELISA) / Binding of serum 1a to looped/cyclic peptides of protein N of SARS-CoV Urbani / Binding of serum 1b to looped/cyclic peptides of protein N of SARS-CoV Urbani / Binding of serum 2 to looped/cyclic peptides of protein N of SARS-CoV Urbani / Binding of serum 6 to looped/cyclic peptides of protein N of SARS-CoV Urbani / Binding of serum 37 to looped/cyclic peptides of protein N of SARS-CoV Urbani / Binding of serum 62 to looped/cyclic peptides of protein N of SARS-CoV Urbani / Binding of serum London to looped/cyclic peptides of protein N of SARS-CoV Urbani / Binding of serum SARS-green to looped/cyclic peptides of protein N of SARS-CoV Urbani: unit not given here
[3] = tested on: rabbit serum obtained by immunizing a rabbit with the SARS-CoV strain Frankfurt 1; format: binding; parameters: Binding of a rabbit serum to linear peptides / Binding of a rabbit serum to looped peptides / Rabbit serum linear peptides / Rabbit serum looped peptides / Binding of a rabbit serum to linear peptides of protein N of SARS-CoV Urbani (Rabbit serum linear peptides) / Binding of a rabbit serum to looped/cyclic peptides of protein N of SARS-CoV Urbani (Rabbit serum looped peptides): unit not given here

MESELVIGAVIIRGH
Binding of Control Serum Blood-Bank to Looped peptides of the protein M of SARS-CoV Urbani [1]: 0.7
Binding of Control serum Blood-bank to linear peptides of the protein M of SARS-CoV Urbani [1]: 0.8
Binding of Control serum LUMC to linear peptides of the protein M of SARS-CoV Urbani [1]: 0.8
Binding of Control serum LUMC to looped peptides of the protein M of SARS-CoV Urbani [1]: 0.6
Binding of serum 1a to linear peptides of protein M of SARS-CoV Urbani [2]: 0.8
Binding of serum 1a to looped/cyclic peptides of protein M of SARS-CoV Urbani [2]: 0.7
Binding of serum 1b to linear peptides of protein M of SARS-CoV Urbani [2]: 0.7
Binding of serum 1b to looped/cyclic peptides of protein M of SARS-CoV Urbani [2]: 0.5
Binding of serum 2 to linear peptides of protein M of SARS-CoV Urbani [2]: 0.8
Binding of serum 2 to looped/cyclic peptides of protein M of SARS-CoV Urbani [2]: 0.6
Binding of serum 6 to linear peptides of protein M of SARS-CoV Urbani [2]: 0.6
Binding of serum 6 to looped/cyclic peptides of protein M of SARS-CoV Urbani [2]: 0.7
Binding of serum 37 to linear peptides of protein M of SARS-CoV Urbani [2]: 0.5
Binding of serum 37 to looped/cyclic peptides of protein M of SARS-CoV Urbani [2]: 0.7
Binding of serum 62 to linear peptides of protein M of SARS-CoV Urbani [2]: 0.5
Binding of serum 62 to looped/cyclic peptides of protein M of SARS-CoV Urbani [2]: 0.6
Binding of serum London to linear peptides of protein M of SARS-CoV Urbani [2]: 0.4
Binding of serum London to looped/cyclic peptides of protein M of SARS-CoV Urbani [2]: 0.2
Binding of serum SARS-green to linear peptides of protein M of SARS-CoV Urbani [2]: 0.7
Binding of serum SARS-green to looped/cyclic peptides of protein M of SARS-CoV Urbani [2]: 0.2
Binding of serum SARS-yellow to linear peptides of protein M of SARS-CoV Urbani [2]: 0.2
Binding of serum SARS-yellow to looped/cyclic peptides of protein M of SARS-CoV Urbani [2]: 0.6
Rabbit serum linear peptides [3]: 0.2
Rabbit serum looped peptides [3]: 0.2

MFHLVDFQVTIAEIL
Binding of Control Serum Blood-Bank to Looped peptides of the protein X3 of SARS-CoV Urbani [1]: 0.8
Binding of Control serum Blood-bank to linear peptides of the protein X3 of SARS-CoV Urbani [1]: 0.9
Binding of Control serum LUMC to linear peptides of the protein X3 of SARS-CoV Urbani [1]: 0.9
Binding of Control serum LUMC to looped peptides of the protein X3 of SARS-CoV Urbani [1]: 1.0
Binding of serum 1a to linear peptides of protein X3 of SARS-CoV Urbani [2]: 0.8
Binding of serum 1a to looped/cyclic peptides of protein X3 of SARS-CoV Urbani [2]: 0.8
Binding of serum 1b to linear peptides of protein X3 of SARS-CoV Urbani [2]: 0.7
Binding of serum 1b to looped/cyclic peptides of protein X3 of SARS-CoV Urbani [2]: 0.6
Binding of serum 2 to linear peptides of protein X3 of SARS-CoV Urbani [2]: 0.7
Binding of serum 2 to looped/cyclic peptides of protein X3 of SARS-CoV Urbani [2]: 0.8
Binding of serum 6 to linear peptides of protein X3 of SARS-CoV Urbani [2]: 0.5
Binding of serum 6 to looped/cyclic peptides of protein X3 of SARS-CoV Urbani [2]: 0.6
Binding of serum 37 to linear peptides of protein X3 of SARS-CoV Urbani [2]: 0.7
Binding of serum 37 to looped/cyclic peptides of protein X3 of SARS-CoV Urbani [2]: 1.0
Binding of serum 62 to linear peptides of protein X3 of SARS-CoV Urbani [2]: 0.8
Binding of serum 62 to looped/cyclic peptides of protein X3 of SARS-CoV Urbani [2]: 0.8
Binding of serum London to linear peptides of protein X3 of SARS-CoV Urbani [2]: 0.7
Binding of serum London to looped/cyclic peptides of protein X3 of SARS-CoV Urbani [2]: 0.3
Binding of serum SARS-green to linear peptides of protein X3 of SARS-CoV Urbani [2]: 0.3
Binding of serum SARS-green to looped/cyclic peptides of protein X3 of SARS-CoV Urbani [2]: 0.6
Binding of serum SARS-yellow to linear peptides of protein X3 of SARS-CoV Urbani [2]: 0.6
Binding of serum SARS-yellow to looped/cyclic peptides of protein X3 of SARS-CoV Urbani [2]: 0.8
Rabbit serum linear peptides [3]: 0.3
Rabbit serum looped peptides [3]: 0.4

MKIILFLTLIVFTSC
Binding of Control Serum Blood-Bank to Looped peptides [1]: 0.6
Binding of Control serum Blood-bank to linear peptides [1]: 0.6
Binding of Control serum LUMC to linear peptides [1]: 0.5
Binding of Control serum LUMC to looped peptides [1]: 0.7
Binding of serum 1a to linear peptides of protein X4 of SARS-CoV Urbani [2]: 0.6
Binding of serum 1a to looped/cyclic peptides of protein X4 of SARS-CoV Urbani [2]: 0.6
Binding of serum 1b to linear peptides of protein X4 of SARS-CoV Urbani [2]: 0.5
Binding of serum 1b to looped/cyclic peptides of protein X4 of SARS-CoV Urbani [2]: 0.0
Binding of serum 2 to linear peptides of protein X4 of SARS-CoV Urbani [2]: 0.4
Binding of serum 2 to looped/cyclic peptides of protein X4 of SARS-CoV Urbani [2]: 0.5
Binding of serum 6 to linear peptides of protein X4 of SARS-CoV Urbani [2]: 0.4
Binding of serum 6 to looped/cyclic peptides of protein X4 of SARS-CoV Urbani [2]: 0.5
Binding of serum 37 to linear peptides of protein X4 of SARS-CoV Urbani [2]: 0.7
Binding of serum 37 to looped/cyclic peptides of protein X4 of SARS-CoV Urbani [2]: 0.6
Binding of serum 62 to linear peptides of protein X4 of SARS-CoV Urbani [2]: 0.7
Binding of serum 62 to looped/cyclic peptides of protein X4 of SARS-CoV Urbani [2]: 0.5
Binding of serum London to linear peptides of protein X4 of SARS-CoV Urbani [2]: 0.7
Binding of serum London to looped/cyclic peptides of protein X4 of SARS-CoV Urbani [2]: 0.2
Binding of serum SARS-green to linear peptides of protein X4 of SARS-CoV Urbani [2]: 0.4
Binding of serum SARS-green to looped/cyclic peptides of protein X4 of SARS-CoV Urbani [2]: 0.3
Binding of serum SARS-yellow to linear peptides of protein X4 of SARS-CoV Urbani [2]: 0.5
Binding of serum SARS-yellow to looped/cyclic peptides of protein X4 of SARS-CoV Urbani [2]: 0.6
Rabbit serum linear peptides [3]: 0.7
Rabbit serum looped peptides [3]: 0.4

MLHSSSLTSLLKTHR
Binding of Control Serum Blood-Bank to Looped peptides [1]: 0.6
Binding of Control serum Blood-bank to linear peptides [1]: 0.5
Binding of Control serum LUMC to linear peptides [1]: 0.4
Binding of Control serum LUMC to looped peptides [1]: 0.5
Binding of serum 1a to linear peptides of protein X2 [2]: 0.6
Binding of serum 1a to looped/cyclic peptides of protein X2 of SARS-CoV Urbani [2]: 0.5
Binding of serum 1b to linear peptides of protein X2 [2]: 0.4
Binding of serum 1b to looped/cyclic peptides of protein X2 of SARS-CoV Urbani [2]: 0.5
Binding of serum 2 to linear peptides of protein X2 [2]: 0.4
Binding of serum 2 to looped/cyclic peptides of protein X2 of SARS-CoV Urbani [2]: 0.5
Binding of serum 6 to linear peptides of protein X2 [2]: 0.6
Binding of serum 6 to looped/cyclic peptides of protein X2 of SARS-CoV Urbani [2]: 0.2
Binding of serum 37 to linear peptides of protein X2 [2]: 0.5
Binding of serum 37 to looped/cyclic peptides of protein X2 of SARS-CoV Urbani [2]: 0.3
Binding of serum 62 to linear peptides of protein X2 [2]: 0.5
Binding of serum 62 to looped/cyclic peptides of protein X2 of SARS-CoV Urbani [2]: 0.5
Binding of serum London to linear peptides of protein X2 [2]: 0.6
Binding of serum London to looped/cyclic peptides of protein X2 of SARS-CoV Urbani [2]: 0.2
Binding of serum SARS-green to linear peptides of protein X2 [2]: 0.5
Binding of serum SARS-green to looped/cyclic peptides of protein X2 of SARS-CoV Urbani [2]: 0.4
Binding of serum SARS-yellow to linear peptides of protein X2 [2]: 0.5
Binding of serum SARS-yellow to looped/cyclic peptides of protein X2 of SARS-CoV Urbani [2]: 0.5
Binding of a rabbit serum to linear peptides [3]: 0.2
Binding of a rabbit serum to looped peptides [3]: 0.5
